From the supplement of paper PMC10307832

What was measured:
Test in all cases: relative viability (nuclei count vs DMSO), 5 days (fraction); higher = more cells survive
LXF-289 = test system: LXF-289
Outline: (§1)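 Medians of duplicate plates are given as relative viability. That measure is the nuclei count in treated wells divided by the count in vehicle wells. Counts were taken on 4× images of lung cancer cell lines in 1536-well plates, 5 days after pin-tool dosing the day after seeding with one drug alone or a fixed anchor-drug dose plus five library-drug doses (not always all listed) in √10 steps.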

NCI-H520 = test system: NCI-H520
Outline: as §1

NCI-H1651 = test system: NCI-H1651
Outline: as §1

PC-14 = test system: PC-14
Outline: as §1

NCI-H1355 = test system: NCI-H1355
Outline: as §1

NCI-H1915 = test system: NCI-H1915
Outline: as §1

NCI-H1755 = test system: NCI-H1755
Outline: as §1

NCI-H596 = test system: NCI-H596
Outline: as §1

NCI-H322M = test system: NCI-H322M
Outline: as §1

NCI-H3122 = test system: NCI-H3122
Outline: as §1

NCI-H661 = test system: NCI-H661
Outline: as §1

RERF-LC-KJ = test system: RERF-LC-KJ
Outline: as §1

NCI-H727 = test system: NCI-H727
Outline: as §1

NCI-H1563 = test system: NCI-H1563
Outline: as §1

NCI-H1792 = test system: NCI-H1792
Outline: as §1

LCLC-103H = test system: LCLC-103H
Outline: as §1

SK-MES-1 = test system: SK-MES-1
Outline: as §1

NCI-H441 = test system: NCI-H441
Outline: as §1

NCI-H2347 = test system: NCI-H2347
Outline: as §1

NCI-H460 = test system: NCI-H460
Outline: as §1

CCN(CC)CCCCNc1ncc2cc(-c3cc(OC)cc(OC)c3)c(NC(=O)NC(C)(C)C)nc2n1 + C[C@]1(O)C[C@@H](c2nc(-c3ccc4ccc(-c5ccccc5)nc4c3)c3c(N)nccn32)C1 [Linsitinib] (partner 1 µM)
relative viability (LXF-289; first compound 0.01 µM): 0.974 | relative viability (LXF-289; first compound 0.03162 µM): 1.02 | relative viability (LXF-289; first compound 0.1 µM): 1.03 | relative viability (LXF-289; first compound 0.3162 µM): 0.972 | relative viability (LXF-289; first compound 1 µM): 0.843 | relative viability (NCI-H520; first compound 0.01 µM): 0.998 | relative viability (NCI-H520; first compound 0.03162 µM): 1.02 | relative viability (NCI-H520; first compound 0.1 µM): 0.948 | relative viability (NCI-H520; first compound 0.3162 µM): 0.912 | relative viability (NCI-H520; first compound 1 µM): 0.332 | relative viability (NCI-H1651; first compound 0.01 µM): 1.06 | relative viability (NCI-H1651; first compound 0.03162 µM): 0.931 | relative viability (NCI-H1651; first compound 0.1 µM): 1.28 | relative viability (NCI-H1651; first compound 0.3162 µM): 1.16 | relative viability (NCI-H1651; first compound 1 µM): 0.786 | relative viability (PC-14; first compound 0.01 µM): 1.01 | relative viability (PC-14; first compound 0.03162 µM): 1.03 | relative viability (PC-14; first compound 0.1 µM): 1.02 | relative viability (PC-14; first compound 0.3162 µM): 1.09 | relative viability (PC-14; first compound 1 µM): 0.885 | relative viability (NCI-H1355; first compound 0.01 µM): 0.861 | relative viability (NCI-H1355; first compound 0.03162 µM): 0.887 | relative viability (NCI-H1355; first compound 0.1 µM): 0.873 | relative viability (NCI-H1355; first compound 0.3162 µM): 0.898 | relative viability (NCI-H1355; first compound 1 µM): 0.794 | relative viability (NCI-H1915; first compound 0.01 µM): 1.11 | relative viability (NCI-H1915; first compound 0.03162 µM): 1.12 | relative viability (NCI-H1915; first compound 0.1 µM): 1.12 | relative viability (NCI-H1915; first compound 0.3162 µM): 1.1 | relative viability (NCI-H1915; first compound 1 µM): 1.15 | relative viability (NCI-H1755; first compound 0.01 µM): 1.08 | relative viability (NCI-H1755; first compound 0.03162 µM): 0.979 | relative viability (NCI-H1755; first compound 0.1 µM): 0.995 | relative viability (NCI-H1755; first compound 0.3162 µM): 1.08 | relative viability (NCI-H1755; first compound 1 µM): 0.925 | relative viability (NCI-H596; first compound 0.01 µM): 1.1 | relative viability (NCI-H596; first compound 0.03162 µM): 1.05 | relative viability (NCI-H596; first compound 0.1 µM): 1.05 | relative viability (NCI-H596; first compound 0.3162 µM): 1.07 | relative viability (NCI-H596; first compound 1 µM): 0.814 | relative viability (NCI-H322M; first compound 0.01 µM): 0.99 | relative viability (NCI-H322M; first compound 0.03162 µM): 0.875 | relative viability (NCI-H322M; first compound 0.1 µM): 0.938 | relative viability (NCI-H322M; first compound 0.3162 µM): 0.982 | relative viability (NCI-H322M; first compound 1 µM): 0.891 | relative viability (NCI-H3122; first compound 0.01 µM): 1.05 | relative viability (NCI-H3122; first compound 0.03162 µM): 1.02 | relative viability (NCI-H3122; first compound 0.1 µM): 1.08 | relative viability (NCI-H3122; first compound 0.3162 µM): 1.04 | relative viability (NCI-H3122; first compound 1 µM): 1.01 | relative viability (NCI-H661; first compound 0.01 µM): 0.568 | relative viability (NCI-H661; first compound 0.03162 µM): 0.45 | relative viability (NCI-H661; first compound 0.1 µM): 0.58 | relative viability (NCI-H661; first compound 0.3162 µM): 0.61 | relative viability (NCI-H661; first compound 1 µM): 0.535 | relative viability (RERF-LC-KJ; first compound 0.01 µM): 0.891 | relative viability (RERF-LC-KJ; first compound 0.03162 µM): 0.961 | relative viability (RERF-LC-KJ; first compound 0.1 µM): 1.04 | relative viability (RERF-LC-KJ; first compound 0.3162 µM): 1.01 | relative viability (RERF-LC-KJ; first compound 1 µM): 0.887 | relative viability (NCI-H727; first compound 0.01 µM): 0.297 | relative viability (NCI-H727; first compound 0.03162 µM): 0.251 | relative viability (NCI-H727; first compound 0.1 µM): 0.293 | relative viability (NCI-H727; first compound 0.3162 µM): 0.363 | relative viability (NCI-H727; first compound 1 µM): 0.301 | relative viability (NCI-H1563; first compound 0.01 µM): 1.29 | relative viability (NCI-H1563; first compound 0.03162 µM): 1.34 | relative viability (NCI-H1563; first compound 0.1 µM): 1.13 | relative viability (NCI-H1563; first compound 0.3162 µM): 1.09 | relative viability (NCI-H1563; first compound 1 µM): 0.889 | relative viability (NCI-H1792; first compound 0.01 µM): 0.572 | relative viability (NCI-H1792; first compound 0.03162 µM): 0.501 | relative viability (NCI-H1792; first compound 0.1 µM): 0.475 | relative viability (NCI-H1792; first compound 0.3162 µM): 0.696 | relative viability (NCI-H1792; first compound 1 µM): 0.295 | relative viability (LCLC-103H; first compound 0.01 µM): 1.17 | relative viability (LCLC-103H; first compound 0.03162 µM): 1.11 | relative viability (LCLC-103H; first compound 0.1 µM): 1.2 | relative viability (LCLC-103H; first compound 0.3162 µM): 1.09 | relative viability (LCLC-103H; first compound 1 µM): 1.15 | relative viability (SK-MES-1; first compound 0.01 µM): 1.04 | relative viability (SK-MES-1; first compound 0.03162 µM): 1.26 | relative viability (SK-MES-1; first compound 0.1 µM): 1.16 | relative viability (SK-MES-1; first compound 0.3162 µM): 1.16 | relative viability (SK-MES-1; first compound 1 µM): 1.09 | relative viability (NCI-H441; first compound 0.01 µM): 0.626 | relative viability (NCI-H441; first compound 0.03162 µM): 0.441 | relative viability (NCI-H441; first compound 0.1 µM): 0.808 | relative viability (NCI-H441; first compound 0.3162 µM): 0.635 | relative viability (NCI-H441; first compound 1 µM): 0.432 | relative viability (NCI-H2347; first compound 0.01 µM): 0.93 | relative viability (NCI-H2347; first compound 0.03162 µM): 0.999 | relative viability (NCI-H2347; first compound 0.1 µM): 0.916 | relative viability (NCI-H2347; first compound 0.3162 µM): 1.05 | relative viability (NCI-H2347; first compound 1 µM): 0.889 | relative viability (NCI-H460; first compound 0.01 µM): 1.05 | relative viability (NCI-H460; first compound 0.03162 µM): 0.985 | relative viability (NCI-H460; first compound 0.1 µM): 0.868 | relative viability (NCI-H460; first compound 0.3162 µM): 1.58 | relative viability (NCI-H460; first compound 1 µM): 0.293
